Test results published in patent publication EP1210336B1, “SUBSTITUTED BENZIMIDAZOLES AS NON-NUCLEOSIDE INHIBITORS OF REVERSE TRANSCRIPTASE” (THE UNITED STATES OF AMERICA, as represented by the …, priority 1999, dated 2001).
Read-outs that look alike come from different tables or passages of the source.

Assays:
[1] = system: HIV-1 isolate 4xAZT/L100I; experiment: Cytopathic cell killing assay, cross-resistance profile, infected MT-4 cells; assay type: cell-based
In short: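 Cytopathic protection assay: cells at 5 x 10^3/well infected with pre-titered HIV isolate (e.g., MOI 0.01-0.05), compound serial half-log dilutions in triplicate.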

HIV-1 WT RT = molecular target: T1, HIV-1 WT RT (Human immunodeficiency virus type 1 group M subtype B, UniProt P03366); experiment: biochemical; details: for inhibition at 10 µM: read-out: %inhibn (10µM)
T1 construct: purified RT protein (0.015 mg/mL) was incubated in a 100 µL reaction mixture

NL4-3 (WT) = experiment: Cytopathic cell killing assay, cross-resistance profile, infected MT-4 cells; assay type: cell-based, HIV-1
In short: (§1)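 MT-4 cells, 5 x 10^3 per well, were infected with pre-titered HIV-1 (wild-type NL4-3 or RT-mutant isolates) at an MOI giving complete killing by day 6 (e.g., 0.01-0.05). Compounds were added as serial half-log dilutions in triplicate. After 6 days at 37°C, viability was read by XTT reduction at 450 nm.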

HIV-1 variant V179D = experiment: as above; assay type: cell-based; details: isolate V179D
In short: as §1

HIV-1 isolate 4xAZT = experiment: as above; assay type: cell-based
In short: as §1

HIV-1 variant L74V = experiment: as above; assay type: cell-based
In short: as §1

HIV-1 variant L100I = experiment: as above; assay type: cell-based
In short: as §1

HIV-1 variant Y188C = experiment: as above; assay type: cell-based
In short: as §1

HIV-1 variant V108I = experiment: as above; assay type: cell-based
In short: as §1

HIV-1 variant V106A = experiment: as above; assay type: cell-based
In short: as §1

HIV-1 variant K103N = experiment: as above; assay type: cell-based; details: for EC50: isolate K103N
In short: as §1

HIV-1 variant K101E = experiment: as above; assay type: cell-based
In short: as §1

[2] = Human immunodeficiency virus 1, MT4, Table 4, isolate 4xAZT/L.1001
[3] = Human immunodeficiency virus 1, MT4, Table 8, isolate 4XA7T L 1001
[4] = Human immunodeficiency virus 1, MT4, Table 9, isolate 4XAZT /L1001
[5] = Table 1, WT RT, 10 µM drug concentration
[6] = Human immunodeficiency virus 1, NL43, MT4, Table 4, isolate NL4-3 (WT)
[7] = Human immunodeficiency virus 1, NL43, MT4, Table 8, isolate N1.43
[8] = Human immunodeficiency virus 1, NL43, MT4, Table 9, isolate NL4.3
[9] = Human immunodeficiency virus 1, MT4, Table 4
[10] = Human immunodeficiency virus 1, MT4, Table 8
[11] = Human immunodeficiency virus 1, MT4, Table 9
[12] = Human immunodeficiency virus 1, MT4, Table 4, isolate 4xAZT
[13] = Human immunodeficiency virus 1, MT4, Table 8, isolate 4XAZT
[14] = Human immunodeficiency virus 1, MT4, Table 4, isolate L74V
[15] = Human immunodeficiency virus 1, MT4, Table 8, isolate 1.74V
[16] = Human immunodeficiency virus 1, MT4, Table 9, isolate 1.74 V
[17] = Human immunodeficiency virus 1, MT4, Table 4, isolate L1001
[18] = Human immunodeficiency virus 1, MT4, Table 8, isolate 1.1001
[19] = Human immunodeficiency virus 1, MT4, Table 9, isolate L1001
[20] = Human immunodeficiency virus 1, MT4, Table 4, isolate Y188C
[21] = Human immunodeficiency virus 1, MT4, Table 8, isolate Y 188C
[22] = Human immunodeficiency virus 1, MT4, Table 9, isolate Y188C
[23] = Human immunodeficiency virus 1, MT4, Table 4, isolate V108I
[24] = Human immunodeficiency virus 1, MT4, Table 8, isolate V1081
[25] = Human immunodeficiency virus 1, MT4, Table 9, isolate V1081
[26] = Human immunodeficiency virus 1, MT4, Table 4, isolate V106A
[27] = Human immunodeficiency virus 1, MT4, Table 8, isolate V 106A
[28] = Human immunodeficiency virus 1, MT4, Table 9, isolate V106A
[29] = Human immunodeficiency virus 1, MT4, Table 4, isolate K101E
[30] = Human immunodeficiency virus 1, MT4, Table 8, isolate K101E
[31] = Human immunodeficiency virus 1, MT4, Table 9, isolate KIOIE

`Fc1cccc(F)c1C1SCc2nc3ccccc3n21` (centres unmarked) [TZB, 1-(2,6-difluorophenyl)-1H,3H-thiazolo[3,4-a]benzimidazole, reference compound] showed an EC50 [1, 2] of 1.7 µM, an EC50 [1, 3] of 1.1 µM and an EC50 [1, 4] of 1.1 µM. It also gave an IC50 (HIV-1 WT RT) of 0.5 µM, an inhibition at 10 µM (HIV-1 WT RT; [5]) of 84% and an EC50 (NL4-3 (WT); [6]) of 1.7 µM. It also gave an EC50 (NL4-3 (WT); [7]) of 10 µM, an EC50 (NL4-3 (WT); [8]) of 1 µM and an EC50 (HIV-1 variant V179D; [9]) of 3.1 µM. The EC50 (HIV-1 variant V179D; [10]) was > 10 µM, the EC50 (HIV-1 variant V179D; [11]) was 3.9 µM and the EC50 (HIV-1 isolate 4xAZT; [12]) was 1.5 µM. It also gave an EC50 (HIV-1 isolate 4xAZT; [13]) of 1.1 µM, an EC50 (HIV-1 variant L74V; [14]) of 0.7 µM and an EC50 (HIV-1 variant L74V; [15]) of 0.8 µM. The EC50 (HIV-1 variant L74V; [16]) was 0.5 µM, the EC50 (HIV-1 variant L100I; [17]) was 12.2 µM and the EC50 (HIV-1 variant L100I; [18]) was 6.6 µM. For the same molecule, the EC50 (HIV-1 variant L100I; [19]) was 6.6 µM, the EC50 (HIV-1 variant Y188C; [20]) was > 20 µM and the EC50 (HIV-1 variant Y188C; [21]) was > 20 µM. The EC50 (HIV-1 variant Y188C; [22]) was > 20 µM, the EC50 (HIV-1 variant V108I; [23]) was 9.7 µM and the EC50 (HIV-1 variant V108I; [24]) was 3.9 µM. For the same molecule, the EC50 (HIV-1 variant V108I; [25]) was 5.7 µM, the EC50 (HIV-1 variant V106A; [26]) was > 20 µM and the EC50 (HIV-1 variant V106A; [27]) was 5.7 µM. The EC50 (HIV-1 variant V106A; [28]) was > 10 µM, the EC50 (HIV-1 variant K103N; [9]) was > 20 µM and the EC50 (HIV-1 variant K103N; [10]) was > 10 µM. The EC50 (HIV-1 variant K103N; [11]) was > 20 µM, the “activity against the K103N mutation / isolate” value (HIV-1 variant K103N; result in words, cytopathic cell killing assay) was “ineffective” and the EC50 (HIV-1 variant K101E; [29]) was > 20 µM. The EC50 (HIV-1 variant K101E; [30]) was > 10 µM and the EC50 (HIV-1 variant K101E; [31]) was > 10 µM.

In the case of `Cc1cccc2c1nc(-c1c(F)cccc1F)n2Cc1c(F)cccc1F` [compound 33, 1-(2,6-difluorobenzyl)-2-(2,6-difluorophenyl)-4-methylbenzimidazole], the EC50 [1, 2] is reported as 0.2 µM, the EC50 [1, 3] is reported as 0.2 µM and the EC50 [1, 4] is reported as 0.2 µM. It also gave an IC50 (HIV-1 WT RT; HIV-1 WT RT, read-out: IC50) of 0.2 µM, an inhibition at 10 µM (HIV-1 WT RT; [5]) of 92% and an IC50 (HIV-1 WT RT; Table 1, quantity of drug required to reduce WT RT enzyme activity by 50%, read-out: IC50) of 0.2 µM. The “%inhibn (10µM)” value (HIV-1 WT RT; Table 2, WT RT, 10 µM drug concentration) was 92%, the IC50 (HIV-1 WT RT; Table 7, HIV-1 WT RT, read-out: IC50) was 0.2 µM and the inhibition at 1 µM (HIV-1 WT RT; Table 7, WT HIV-1 RT, 1 µM drug, read-out: %inhibn (1µM)) was 71%. It also gave an IC50 (HIV-1 WT RT; Table 11, WT RT, read-out: IC50) of 0.2 µM, an IC50 (HIV-1 WT RT; WT RT, read-out: IC50) of 0.2 µM and an EC50 (NL4-3 (WT); [6]) of 0.5 µM. For the same molecule, the EC50 (NL4-3 (WT); [7]) was 0.5 µM, the EC50 (NL4-3 (WT); [8]) was 0.5 µM and the EC50 (NL4-3 (WT); Human immunodeficiency virus 1, NL43, MT4, Table 10 (values in µM), isolate NL4-3 (WT)) was 0.5 µM. The “-fold better in the inhibition of the various viral isolates than the des-methyl analog 26” value (NL4-3 (WT); various viral isolates of Table 4) was 3- to 4 fold, the EC50 (HIV-1 variant V179D; [9]) was 0.5 µM and the EC50 (HIV-1 variant V179D; [10]) was 0.7 µM. The EC50 (HIV-1 variant V179D; [11]) was 0.7 µM, the EC50 (HIV-1 isolate 4xAZT; [12]) was 0.1 µM and the EC50 (HIV-1 isolate 4xAZT; [13]) was 0.1 µM. It also gave an EC50 (HIV-1 isolate 4xAZT; Human immunodeficiency virus 1, MT4, Table 9, isolate 4XAZT) of 0.1 µM, an EC50 (HIV-1 variant L74V; [14]) of 0.1 µM and an EC50 (HIV-1 variant L74V; [15]) of 0.3 µM. It also gave an EC50 (HIV-1 variant L74V; [16]) of 0.3 µM, an EC50 (HIV-1 variant L100I; [17]) of 0.3 µM and an EC50 (HIV-1 variant L100I; [18]) of 0.3 µM. It also gave an EC50 (HIV-1 variant L100I; [19]) of 0.3 µM, an EC50 (HIV-1 variant L100I; Human immunodeficiency virus 1, MT4, Table 10 (values in µM), isolate L1001) of 0.3 µM and an EC50 (HIV-1 variant Y188C; [20]) of 2.3 µM. It also gave an EC50 (HIV-1 variant Y188C; [21]) of 3 µM, an EC50 (HIV-1 variant Y188C; [22]) of 3 µM and an EC50 (HIV-1 variant Y188C; Human immunodeficiency virus 1, MT4, Table 10 (values in µM), isolate Y188C) of 2.3 µM. It also gave an EC50 (HIV-1 variant V108I; [23]) of 2.8 µM, an EC50 (HIV-1 variant V108I; [24]) of 2.8 µM and an EC50 (HIV-1 variant V108I; [25]) of 2.8 µM. The EC50 (HIV-1 variant V108I; Human immunodeficiency virus 1, MT4, Table 10 (values in µM), isolate V108l) was 2.8 µM, the EC50 (HIV-1 variant V106A; [26]) was 20 µM and the EC50 (HIV-1 variant V106A; [27]) was > 10 µM. The EC50 (HIV-1 variant V106A; [28]) was > 10 µM, the EC50 (HIV-1 variant K103N; [9]) was 8.1 µM and the EC50 (HIV-1 variant K103N; [10]) was > 20 µM. For the same molecule, the EC50 (HIV-1 variant K103N; [11]) was > 20 µM, the EC50 (HIV-1 variant K103N; Human immunodeficiency virus 1, MT4, Table 10 (values in µM)) was 8.1 µM and the EC50 (HIV-1 variant K101E; [29]) was 16.7 µM. The EC50 (HIV-1 variant K101E; [30]) was > 10 µM, the EC50 (HIV-1 variant K101E; [31]) was > 10 µM and the EC50 (HIV-1 variant K101E; Human immunodeficiency virus 1, MT4, Table 10 (values in µM), isolate K101E) was 16.7 µM.
